According to US12617790B2, “Mitragynine analogs and uses thereof” (Memorial Sloan-Kettering Cancer Center, priority 2015, dated 2026):
pEC50, pIC50, pKi: −log10 of the molar value. Read-outs that look alike come from different tables or passages of the source.

Assays:
[1] = molecular target: T1, DOR-1 (Mus musculus, UniProt P32300); test: [35S]GTPγS functional assay, DOR-1 transfected cell membranes; assay type: biochemical; conditions: for pIC50: antagonism of 100 nM DPDPE, read-out: DOR-1 IC50; for pEC50: agonist stimulation of [35S]GTPγS binding
T1 construct: expressed in transfected cells; host or cells: CHO

[2] = molecular target: T1, DOR-1; test: Competition binding against 125I-IBNtxA in DOR-1/CHO membranes; conditions: for Ki: 125I-IBNtxA (0.1 nM), CHO membranes, cloned mouse receptor, read-out: Affinity (Ki nM) DOR-1
[3] = test system: CD1 mice; test: Radiant heat tail flick analgesia, icv, CD1 mice; assay type: in vivo, mouse; conditions: ED50, cumulative dose-response, tail flick 15 min after icv dose
[4] = test system: CD1 mice; test: Radiant heat tail flick analgesia, sc, CD1 mice; assay type: in vivo; conditions: Mus musculus, 0.25 h, ED50, cumulative dose-response, tail flick 15 min after sc dose
[5] = molecular target: T2, MOR-1 (Mus musculus, UniProt P42866); test: [35S]GTPγS functional assay, MOR-1 transfected cell membranes; assay type: biochemical; design: Emax: dose or concentration left out as unconfirmed; conditions: for Emax: read-out: MOR-1 Emax (%)
T2 construct: expressed in transfected cells; host or cells: CHO

[6] = test system: 129/Sv mice; test: Tail flick antinociception icv in 129/Sv mice (wild type and Exon11 knockout); assay type: in vivo, mouse; conditions: 15 min
[7] = test system: mice; test: Antisense oligodeoxynucleotide downregulation, tail flick antinociception; assay type: in vivo, mouse; conditions: antisense icv days 1, 3, 5, test day 6; VM1501 1.0 mg/kg sc, VM1502 1.5 mg/kg sc
[8] = molecular target: T2, MOR-1; test: Competition binding against 125I-IBNtxA in MOR-1/CHO membranes
[9] = test system: mice; test: Gastrointestinal motility assay (charcoal meal transit); conditions: FIG. 8D: VM1501 0.5 and 1 mg/kg, 30 min
[10] = test system: CD1 mice; test: Respiratory depression assessment (MouseOx pulse oximeter breath rate)
[11] = molecular target: T3, KOR-1 (Mus musculus, UniProt P33534); test: [35S]GTPγS functional assay, KOR-1 transfected cell membranes; assay type: biochemical
T3 construct: expressed in transfected cells; host or cells: CHO

[12] = test system: CD1 mice; test: Reversal of tail flick antinociception by selective opioid antagonists, CD1 mice; assay type: in vivo, mouse; conditions: VM1501 1.0 mg/kg sc, VM1502 1.5 mg/kg sc
[13] = molecular target: T3, KOR-1; test: Competition binding against 125I-IBNtxA in KOR-1/CHO membranes; conditions: for Ki: 125I-IBNtxA (0.1 nM), CHO membranes, cloned mouse receptor, read-out: Affinity (Ki nM) KOR-1
[14] = test system: CD1 male mice; test: Tolerance study, chronic twice daily dosing, tail flick; conditions: Mus musculus, sc, 0 h, read-out: analgesic ED50, naïve (day 0)
[15] = FIG. 8C: VM1501 2.5 mg/kg sc (5x ED50), morphine 10 mg/kg, 50 min post-injection
[16] = agonist stimulation of [35S]GTPγS binding, read-out: MOR-1 EC50
[17] = antagonism of 100 nM U50,488H, read-out: KOR-1 IC50
[18] = FIG. 14, 5x antinociceptive ED50: VM1502 3.75 mg/kg sc, VM1512 5.0 mg/kg sc, morphine 10 mg/kg

Oc1ccc2c3c1O[C@H]1c4[nH]c5ccccc5c4C[C@@]4(O)[C@@H](C2)N(CC2CC2)CC[C@]314 [NTI, Naltrindole, reference compound]
pIC50 [1]: 9.14 | pKi [2]: 9.34

CC[C@@H]1CN2CCc3c([nH]c4cccc(OC)c34)[C@@H]2C[C@@H]1/C(=C\OC)C(=O)OC [VM1500, (E)-Methyl-2-((2S,3S,12bS)-3-ethyl-8-methoxy-1,2,3,4,6,7,12,12b-octahydroindolo[2,3-a]quinolizin-2-yl)-3-methoxyacrylate]
Analgesia icv [3]: 42 µg | ED50 [4]: 166 mg/kg | Emax [5]: 65%

CC[C@@H]1CN2CC[C@@]3(O)C(=Nc4cccc(OC)c43)C2C[C@@H]1/C(=C\OC)C(=O)OC (stereo partly drawn) [VM1501, (E)-methyl-2-((2S,3S,7aS)-3-ethyl-7a-hydroxy-8-methoxy-1,2,3,4,6,7,7a,12b-octahydroindolo[2,3-a]quinolizin-2-yl)-3-methoxyacrylate]
Analgesia icv [3]: 0.06 µg | ED50 [4]: 0.46 mg/kg | ED50 antinociception icv, Exon11 knockout ([6]; 129/Sv Exon11 knockout mice): 0.83 µg | ED50 antinociception icv, wild type ([6]; 129/Sv wild type mice): 0.022 µg | analgesic response after antisense downregulation [7]: diminished in MOR-1-downregulated mice | pKi [8]: 7.43 | gastrointestinal transit [9]: did not lower transit significantly compared with saline | pEC50 [5]: 7.28 | respiratory rate [10, 15]: did not depress respiratory rate | pIC50 [11]: 5.60 | pKi [2]: 7.04 | antinociception after NTI (0.5 mg/kg sc) and norBNI (10 mg/kg sc) [12]: insensitive to NTI and norBNI | antinociception after β-FNA (40 mg/kg sc) [12]: antagonized by β-FNA | pKi [13]: 6.88

CC[C@@H]1CN2CC[C@]3(Nc4cccc(O)c4C3=O)C2C[C@@H]1/C(=C\OC)C(=O)OC (stereo partly drawn) [VM1507, (E)-methyl 2-((1'S,6'S,7'S)-6′-ethyl-4-hydroxy-3-oxo-3′,5′,6′,7′,8′,8a′-hexahydro-2′H-spiro[indoline-2,1′-indolizine]-7′-yl)-3-methoxyacrylate]
ED50 [4]: 0.18 mg/kg | pKi [8]: 8.85 | pEC50 [5, 16]: 8.70 | Emax [5]: 124% | pIC50 [1]: 6.53 | Ki [2]: 6.1 nM | Ki [13]: 170 nM

CC[C@@H]1CN2CC[C@]3(Nc4ccccc4C3=O)C2C[C@@H]1/C(=C\OC)C(=O)OC (stereo partly drawn) [VM1508, (E)-methyl 2-((1'S,6'S,7'S)-6′-ethyl-3-oxo-3′,5′,6′,7′,8′,8a′-hexahydro-2′H-spiro[indoline-2,1′-indolizine]-7′-yl)-3-methoxyacrylate]
ED50 [4]: 0.24 mg/kg | pKi [8]: 9.34 | pEC50 [5, 16]: 8.85 | Emax [5]: 116% | pIC50 [1]: 6.71 | pIC50 [11, 17]: 6.60 | Ki [2]: 2.9 nM | Ki [13]: 19 nM

CC[C@@H]1CN2CC[C@]3(Nc4cccc(C#N)c4C3=O)C2C[C@@H]1/C(=C\OC)C(=O)OC (stereo partly drawn) [VM1509, (E)-methyl 2-((1'S,6'S,7'S)-4-cyano-6′-ethyl-3-oxo-3′,5′,6′,7′,8′,8a′-hexahydro-2′H-spiro[indoline-2,1′-indolizine]-7′-yl)-3-methoxyacrylate]
ED50 [4]: 0.32 mg/kg | pKi [8]: 9.30 | pEC50 [5, 16]: 9.15 | Emax [5]: 122% | pIC50 [1]: 7.14 | pIC50 [11, 17]: 6.14 | Ki [2]: 2.4 nM | Ki [13]: 47 nM

CC[C@@H]1CN2CC[C@]3(Nc4cccc(OC(C)=O)c4C3=O)C2C[C@@H]1/C(=C\OC)C(=O)OC (stereo partly drawn) [VM1510, (E)-methyl 2-((1'S,6'S,7'S)-4-acetoxy-6′-ethyl-3-oxo-3′,5′,6′,7′,8′,8a′-hexahydro-2′H-spiro[indoline-2,1′-indolizine]-7′-yl)-3-methoxyacrylate]
ED50 [4]: 0.38 mg/kg | pKi [8]: 8.60 | pEC50 [5, 16]: 8.41 | Emax [5]: 120% | Ki [2]: 20 nM | Ki [13]: 31 nM

CC[C@@H]1CN2CC[C@]3(Nc4cccc(-c5ccccc5)c4C3=O)C2C[C@@H]1/C(=C\OC)C(=O)OC (stereo partly drawn) [VM1511, (E)-methyl 2-((1'S,6'S,7'S)-6′-ethyl-3-oxo-4-phenyl-3′,5′,6′,7′,8′,8a′-hexahydro-2′H-spiro[indoline-2,1′-indolizine]-7′-yl)-3-methoxyacrylate]
ED50 [4]: 1 mg/kg | pKi [8]: 9.04 | pEC50 [5, 16]: 8.85 | Emax [5]: 123% | pEC50 [1]: 9.08 | Emax ([1]; percent maximal stimulation relative to DPDPE, read-out: DOR-1 Emax (value in parentheses after EC50)): 89% | pIC50 [11, 17]: 6.77 | Ki [2]: 0.8 nM | Ki [13]: 51 nM

CC[C@@H]1CN2CC[C@]3(Nc4cccc(-c5ccoc5)c4C3=O)C2C[C@@H]1/C(=C\OC)C(=O)OC (stereo partly drawn) [VM1512, (E)-methyl 2-((1'S,6'S,7'S)-6′-ethyl-4-(furan-3-yl)-3-oxo-3′,5′,6′,7′,8′,8a′-hexahydro-2′H-spiro[indoline-2,1′-indolizine]-7′-yl)-3-methoxyacrylate]
ED50 [4]: 1.1 mg/kg | pKi [8]: 9.03 | pEC50 [5, 16]: 8.82 | respiratory rate [10, 18]: showed no signs respiratory depression | pIC50 [1]: 7.41 | pIC50 [11, 17]: 6.69 | Ki [2]: 1.5 nM | Ki [13]: 39 nM

CC[C@@H]1CN2CCC3(Nc4c(-c5ccoc5)ccc(OC)c4C3=O)C2C[C@@H]1/C(=C\OC)C(=O)OC (stereo partly drawn) [VM1514, Methyl (E)-2-((6'S,7'S)-6′-ethyl-7-(furan-3-yl)-4-methoxy-3-oxo-2′,3′,6′,7′,8′,8a′-hexahydro-5′H-spiro[indoline-2,1′-indolizin]-7′-yl)-3-methoxyacrylate]
pKi [8]: 7.39 | pEC50 [5, 16]: < 6.00 | pEC50 [1]: 6.61 | pEC50 ([11]; agonist stimulation of [35S]GTPγS binding): 7.40 | Ki [2]: 40 nM | Ki [13]: 119 nM

CC[C@@H]1CN2CC[C@@]3(O)C(=Nc4ccccc43)[C@@H]2C[C@@H]1/C(=C\OC)C(=O)OC [VM1522, Methyl (E)-2-((2S,3S,7aS,12bS)-3-ethyl-7a-hydroxy-1,2,3,4,6,7,7a,12b-octahydroindolo[2,3-a]quinolizin-2-yl)-3-methoxyacrylate]
Analgesia icv [3]: 0.1 µg | pKi [8]: 7.64 | pEC50 [5, 16]: 7.47 | Emax [5]: 116% | Ki [2]: 147 nM | Ki [13]: 781 nM

CC[C@@H]1CN2CCc3c([nH]c4cccc(O)c34)[C@@H]2C[C@@H]1/C(=C\OC)C(=O)OC [VM1532, Methyl (E)-2-((2S,3S,12bS)-3-ethyl-8-hydroxy-1,2,3,4,6,7,12,12b-octahydroindolo[2,3-a]quinolizin-2-yl)-3-methoxyacrylate]
Analgesia icv [3]: 9 µg | pKi [8]: 6.68 | pEC50 [5, 16]: 6.37 | Emax [5]: 62% | Ki [2]: 532 nM | Ki [13]: 769 nM

CC[C@@H]1CN2CCc3c([nH]c4ccccc34)[C@@H]2C[C@@H]1/C(=C\OC)C(=O)OC [VM1540, Methyl (E)-2-((2S,3S,12bS)-3-ethyl-1,2,3,4,6,7,12,12b-octahydroindolo[2,3-a]quinolizin-2-yl)-3-methoxyacrylate]
Analgesia icv [3]: 0.1 µg | Emax [5]: 74%

CN1CC[C@]23c4c5ccc(O)c4O[C@H]2[C@@H](O)C=C[C@H]3[C@H]1C5 [morphine, reference compound]
Analgesia icv [3]: 0.53 µg | ED50 [4]: 4.6 mg/kg | respiratory rate [10, 15]: caused respiratory depression | respiratory rate ([10]; FIG. 12D, 2x antinociceptive ED50: VM1502 1.2 mg/kg sc, morphine 5 mg/kg): caused respiratory depression | respiratory rate ([10]; FIG. 12D, 5x antinociceptive ED50: VM1502 3 mg/kg sc, morphine 10 mg/kg): caused respiratory depression | respiratory rate [10, 18]: caused respiratory depression | ED50 [14]: 2 mg/kg

Oc1ccc2c3c1O[C@H]1c4[nH]c5c(c4C[C@@]4(O)[C@@H](C2)N(CC2CC2)CC[C@]314)C[C@@]1(O)[C@H]2Cc3ccc(O)c4c3[C@@]1(CCN2CC1CC1)[C@H]5O4 [norBNI, norbinaltorphimine, reference compound]
pIC50 [11, 17]: 8.54 | Ki [13]: 0.23 nM
